Columns and labels:
[1] = system: Staphylococcus aureus 27217; assay: Checkerboard MIC test, pyrithiones with silver salts; format: cell-based; details: TSB pH 7.3, 35° C., 1 to 2 days
[2] = system: seven cultures of bacteria; assay: Challenge test in soluble oil metalworking fluid, bacteria (Example 6); format: cell-based; details: soluble oil MWF, 10 ppm Zn, 100 ppm NaPT, 50 ppm ZPT or 50 ppm CuPT as in column head
[3] = system: Pseudomonas aeruginosa NCIMB 6749; assay: Zone of inhibition test (paper disc on TSA); format: cell-based; details: 6.5 mm discs; 0.135% pyrithione, 0.1% ZnCl2 or both; 28° C., 24 hr
[4] = system: Staphylococcus aureus ATCC 27217; assay: Zone of inhibition test (paper disc on TSA); format: cell-based; details: 6.5 mm discs; 0.135% pyrithione, 0.1% ZnCl2 or both; 28° C., 24 hr
[5] = system: Aspergillus niger ATCC 6275; assay: Checkerboard MIC test, pyrithiones with zinc salts; format: cell-based; details: pyrithione alone or in the inhibitory mixture with ZnO; TSB, 28 C, 5 days
[6] = system: Pseudomonas aeruginosa NCIMB 6749; assay: Checkerboard MIC test, pyrithiones with zinc salts; format: cell-based; details: pyrithione alone or pyrithione concentration in the inhibitory mixture; TSB, 28 C, 3 days
Ps. aeruginosa ATCC 9027 = assay: Checkerboard MIC test, pyrithiones with zinc salts; format: cell-based, Pseudomonas aeruginosa; details: pyrithione alone or in the inhibitory mixture with ZnO; TSB, 28 C, 3 days
[7] = system: Staphylococcus aureus ATCC 27217; assay: Checkerboard MIC test, pyrithiones with zinc salts; format: cell-based; details: pyrithione alone or pyrithione concentration in the inhibitory mixture; TSB, 28 C, 3 days
[8] = system: Escherichia coli ATCC 10536; assay: Zone of inhibition test (paper disc on TSA); format: cell-based; details: 6.5 mm discs; 0.135% pyrithione, 0.1% ZnCl2 or both; 28° C., 24 hr
Fusarium sp. [9] = assay: Checkerboard MIC test, pyrithiones with zinc salts; format: cell-based; details: pyrithione alone or pyrithione concentration in the inhibitory mixture; TSB, 28 C, 5 days
Description: Mixtures of pyrithione and zinc or silver in various proportions were tested for relative efficacy by a modification of the procedure described by Dougherty, et al.
Equal volumes of bacteria (10^6 cells/ml) or fungi (10^5 spores/ml) were added to each microtiter plate well. The plates were incubated at 28 C for 3 days (bacteria) or 5 days (fungi), and the minimum inhibitory concentration (MIC) of biocide was determined. The Fractional Inhibitory Concentration (FIC=concentration of biocide in an inhibitory mixture divided by the MIC of the pure biocide) was determined, and the FIC Index (sum of the two FIC's) was calculated. The type of interaction was categorized according to the magnitude of the Index: Synergistic (<1), Additive (1), or Antagonistic (>1).

two cultures of fungi = assay: Challenge test in soluble oil metalworking fluid, fungi (Example 6); format: cell-based; details: soluble oil MWF, 10 ppm Zn, 100 ppm NaPT, 50 ppm ZPT or 50 ppm CuPT as in column head
Escherichia coli 10536 = assay: Checkerboard MIC test, pyrithiones with silver salts; format: cell-based; details: TSB pH 7.3, 35° C., 1 to 2 days
Fusarium sp. [10] = assay: MIC in Tryptic Soy Broth, microtiter (Example 1); format: cell-based; details: TSB, 28° C., incubated 5 days; single agent (NaPT without Cu)
Description: Equal volumes of bacterial suspension (10^6 bacteria per milliliter of TSB) containing Pseudomonas aeruginosa ATCC 9027 or fungal spore suspension (10^5 spores per milliliter of TSB) containing Aspergillus niger ATCC 6275 or species of Fusarium and Cephalosporium isolated from contaminated metalworking fluid were added to each microtiter plate well, and the plates were incubated at 28° C. Controls were prepared for cultures inoculated into TSB with and without Cu (II).

[11] = system: Aspergillus niger ATCC 6275; assay: MIC in Tryptic Soy Broth, microtiter (Example 1); format: cell-based; details: TSB, 28° C., incubated 7-8 days; single agent (NaPT without Cu)
[12] = system: Fusarium sp. and Cephalosporium sp.; assay: Challenge test in metalworking fluid emulsion, fungal viable plate counts (Example 4, FIG. 2); format: cell-based; details: 250 ppm (v/v) NaPT (40% active), 10 ppm Cu (II) or Zn(II); challenged twice over 40 days
Description: An emulsion was prepared from a 5% dilution of a concentrate, consisting of mineral oil (83.5%), sulfonated hydrocarbon (10.7%), oleic acid (1.0%), triethanolamine (0.8%), methyl tallowate (3.0%), and propylene glycol ether (1.0%) and dispensed into Erlenmeyer flasks. Each sample was challenged twice over a period of 40 days with 10^7 calls of bacteria and 10^5 fungal spores per milliliter of emulsion. The challenge consisted of seven strains of bacteria and 2 strains of fungi originally isolated from contaminated metalworking fluid: Pseudomonas rubescens NCIMB 12202, Pseudomonas stutzeri sp., Pseudomonas fluorescens NCIMB 12202, Pseudomonas aeruginosa CIMB 6749, Pseudomonas olevorans NCIMB 6576, Alcaligenes faecalis sp., Citrobacter freundii CIMB 12203, Fusarium sp., and Cephalosporium sp. The fluids were agitated continuously on a rotary shaker, and surviving bacteria and fungi were enumerated periodically by viable plate counts on Tryptic Soy Agar.

[13] = system: seven strains of bacteria isolated from contaminated metalworking fluid; assay: Challenge test in metalworking fluid emulsion, bacterial viable plate counts (Example 4, FIG. 1); format: cell-based, Pseudomonas spp., Alcaligenes faecalis, Citrobacter freundii; details: 250 ppm (v/v) NaPT (40% active), 10 ppm Cu (II) or Zn(II); challenged twice over 40 days
[14] = system: Pseudomonas aeruginosa ATCC 9027; assay: MIC in Tryptic Soy Broth, microtiter (Example 1); format: cell-based; details: TSB, 28° C., incubated 5-6 days; single agent (NaPT without Cu)
Cephalosporium sp. = assay: MIC in Tryptic Soy Broth, microtiter (Example 1); format: cell-based; details: TSB, 28° C., incubated 5 days; single agent (NaPT without Cu)
[15] = system: Pseudomonas aeruginosa 9027; assay: Checkerboard MIC test, pyrithiones with silver salts; format: cell-based; details: silver ion alone or in the inhibitory mixture; TSB pH 7.3, 35° C., 1 to 2 days
Candida albicans 10251 = assay: as above; format: cell-based; details: silver ion alone or in the inhibitory mixture; TSB pH 7.3, 35° C., 1 to 2 days
Pityrosporum ovale 1452 = assay: as above; format: cell-based; details: silver ion alone or in the inhibitory mixture; Ushijima Medium pH 5.5, 35° C., 1 to 2 days
[16] = ZPT alone or in the inhibitory mixture with silver salt
[17] = silver ion alone or in the inhibitory mixture

Q: Which “MIC ZPT” value [1, 16] does the source give for zinc pyrithione [ZPT] here?
A: Its value is 4 ppm.

Q: And the “BACTERIA (cfu/ml)” value ([2]; DAY 0)?
A: The value was 3.2 × 10^7 cfu/ml.

Q: And the “BACTERIA (cfu/ml)” value ([2]; DAY 6)?
A: The value was 1000 cfu/ml.

Q: And the “BACTERIA (cfu/ml)” value ([2]; DAY 13)?
A: The value was 4400 cfu/ml.

Q: What about the “BACTERIA (cfu/ml)” value ([2]; DAY 20) of the same compound?
A: The value was 7700 cfu/ml.

Q: What about the “Zone of Inhibition” value [3] of the same compound?
A: The value was 10 mm.

Q: What about the “Zone of Inhibition” value [4] of the same compound?
A: Its value is 27 mm.

Q: What about the “MIC Pyrithione” value [5] of the same compound?
A: The value was 64 ppm.

Q: What about the “MIC Pyrithione” value [6] of the same compound?
A: Its value is 256 ppm.

Q: And the “MIC Pyrithione” value (Ps. aeruginosa ATCC 9027)?
A: Its value is 512 ppm.

Q: And the “MIC Pyrithione” value [7]?
A: The value was 4 ppm.

Q: What about the “Zone of Inhibition” value [8] of the same compound?
A: The value was 31 mm.

Q: And the “MIC Pyrithione” value (Fusarium sp. [9])?
A: The value was 64 ppm.

Q: And the “FUNGI (cfu/ml)” value (two cultures of fungi; DAY 0)?
A: The value was 2.4 × 10^5 cfu/ml.

Q: What about the “FUNGI (cfu/ml)” value (two cultures of fungi; DAY 6) of the same compound?
A: The value was 1000 cfu/ml.

Q: What about the “FUNGI (cfu/ml)” value (two cultures of fungi; DAY 13) of the same compound?
A: The value was 10 cfu/ml.

Q: What about the “FUNGI (cfu/ml)” value (two cultures of fungi; DAY 20) of the same compound?
A: The value was 10 cfu/ml.

Q: And the “MIC ZPT” value (Escherichia coli 10536; [16])?
A: Its value is 8 ppm.

Q: For `O.O.O.O.O.O=S(=O)([O-])[O-].[Cu+2]` [Cu (II), CuSO4.5H2O], which MIC (Fusarium sp. [10]) is on record?
A: Its MIC is >0.5 ppm.

Q: And the MIC [11]?
A: Its MIC is >0.5 ppm.

Q: And the “antifungal efficacy in a metalworking fluid (FIG. 2)” value [12]?
A: Its value is “little effect on reducing the growth of fungi”.

Q: What about the “antibacterial efficacy in a metalworking fluid (FIG. 1)” value [13] of the same compound?
A: The value was “significantly reduced bacterial counts until the second challenge”.

Q: What about the MIC [14] of the same compound?
A: The MIC was >0.5 ppm.

Q: What about the MIC (Cephalosporium sp.) of the same compound?
A: Its MIC is >0.5 ppm.

Q: For `[Cl][Ag]` [AgCl2, AgCl], which “MIC Ag^+1 Ion” value [1, 17] is on record?
A: The value was 9.5 ppm.

Q: What about the “MIC Ag^+1 Ion” value [15] of the same compound?
A: The value was 3.8 ppm.

Q: And the “MIC Ag^+1 Ion” value (Candida albicans 10251)?
A: Its value is 9.8 ppm.

Q: What about the “MIC Ag^+1 Ion” value (Escherichia coli 10536; [17]) of the same compound?
A: The value was 18.8 ppm.

Q: And the “MIC Ag^+1 Ion” value (Pityrosporum ovale 1452)?
A: Its value is 1.2 ppm.

From US8206732B2, “Pyrithione biocides enhanced by silver, copper, or zinc ions” (Arch Chemicals, Inc., priority 1999, dated 2012)
